Test results: patent US8080379B2, “Branched and multi-chain nucleic acid switches for sensing and screening” (Syracuse University, priority 2004, dated 2011)

What was measured:
[1] = molecular target: NC (Human immunodeficiency virus type 1 group M subtype B, UniProt P12493); conditions: cited from earlier work
[2] = molecular target: T1, NCp7 (Human immunodeficiency virus type 1 group M subtype B, UniProt P12493); conditions: read-out: Kd′, single binding constant fit of FRET titration; Nt≅10 nM; emission at 517 nm
Method: FRET-monitored titration of the C3 (SEQ ID NO: 7) (Nt≅10 nM). [NCp7] increases left to right, expressed as the ratio Pt/Nt. The emission at 517 nm is reported after subtracting that of the RNase treated sample. […] Uncertainty in Nt limits the precision of this determination.
A fluorophore is placed at the 5′-end of the chain (*), and a quencher at the location marked Q. The distance between fluorophore and quencher is much larger in H than in O, so H has much stronger fluorescence.

[3] = H/O conformational equilibrium of the C3 switch by fluorescence; assay type: physicochemical; conditions: no protein
Text: Such “molecular beacons” operate on the principle of FRET.
It is appropriate to examine the two extreme states in FIG. 11 (sequences M1 and M2 in Table 2). This allows evaluation of the position of the K1 equilibrium shift upon changing the sequence. Simply put, the luminescence of pure H and O are known, so their populations in a mixed system are just linear functions of the measured luminescence.

[4] = molecular target: T1, NCp7; conditions: 10 nM concentration of the switch

c(F-C-dW-R-C-K)
competition with NC for in vitro recognition of its RNA, DNA and protein targets [1]: competes with NC

C3: unimolecular bistable RNA/DNA switch, SEQ ID NO: 7, with FAM fluorophore and Dabsyl quencher (GCTATCCACCGATAGCTCCAACACGCUAGCGGUGGCUAGC; RNA/DNA chimera, FAM fluorophore and Dabsyl quencher, positions not given here)
Kd [2]: 500 nM | K1 = [O]/[H] [3]: 0.08

B1: M3: tethered duplex of all-DNA chain SEQ ID NO: 3 and DNA/RNA chimeric chain SEQ ID NO: 6 (nucleic acid)
chain 1: GCTATCCACCGATAGCTCACAGCACGACTCAGATGG
chain 2: CCATCTGAGTCGTGCACGCUAGCGGUGGCUAGC
modifications: chain 1: DNA, backbone not given here; chain 2: chemistry not given here; strands tethered, second strand DNA/RNA chimera
time of equilibration with NCp7 [4]: within a minute
